In PMC7310027, “PET imaging of soluble epoxide hydrolase in non-human primate brain with [^18F]FNDP” (EJNMMI Research, 2020):
Like-named read-outs stand apart in the source and are kept apart here.

Assays:
[1] = Baboon [^18F]FNDP dynamic PET, baseline scans with kinetic modelling (2TCM, 1TCM, Logan); assay type: in vivo, baboon (Papio anubis); conditions: male, baboon (Papio anubis), intravenous, baseline, mean ± SD of 3 baboons
Procedure: (§1) PET images were acquired using a CPS/CTI high-resolution research tomograph (HRRT), which has an axial resolution (FWHM) of 2.4 mm and in-plane resolution of 2.4–2.8 mm. […] These blocking studies were performed 27 to 43 days apart from each other to ensure full animal recovery. The animals had no food for 12 h prior to each PET study. Anesthesia was induced with intramuscular ketamine (7.5–10 mg/kg) and maintained with a continuous intravenous infusion of propofol at 0.3–0.4 mg/kg/min throughout the PET experiment. One venous catheter was inserted for the radioligand injection, and one arterial catheter was inserted to obtain arterial blood samples. Baboons were intubated to facilitate respiration, and circulatory volume was maintained by constant infusion of isotonic saline. Physiological vital signs including heart rate, blood pressure, electrocardiogram, and oxygen saturation were monitored continuously throughout the study.
(§2) The animals were positioned in the PET scanner with the head immobilized using a thermoplastic mask. A 6-min transmission scan was acquired using a rotating ^137Cesium source for generating attenuation maps. The 90-min dynamic PET acquisition was then started in three-dimensional list mode simultaneously with an intravenous bolus injection of [^18F]FNDP. […]
(§3) Measurement of the arterial plasma input function was conducted through collection of ~ 40 blood samples over the course of the 90-min dynamic PET study. […] Samples were then centrifuged at 1200 × g, and the plasma radioactivity was measured with a cross-calibrated PerkinElmer Wizard 2480 automatic gamma counter.
(§4) The 90 min of PET data were binned into 30 frames: four 15-s, four 30-s, three 1-min, two 2-min, five 4 -min, and 12 5-min frames. Images were reconstructed using the 3D iterative ordered subset expectation maximization (OS-EM) algorithm (with six iterations and 16 subsets) with correction for radioactive decay, deadtime, attenuation, scatter, and randoms. The reconstructed image space consisted of cubic voxels, each 1.22 mm^3 in size, and spanning dimensions of 31 cm × 31 cm (transaxially) and 25 cm (axially).
(§5) The software package PMOD (v3.7, PMOD Technologies Ltd, Zurich, Switzerland) was used for the image processing and subsequent kinetic analysis. The previously acquired T1-weighted brain MRI images for the baboon were co-registered to the reconstructed dynamic PET images acquired in this study. Through manually matching the co-registered MRI to the INIA19 Template and NeuroMaps Atlas for Primate Brain Image Parcellation and Spatial Normalization, 13 representative baboon brain volumes of interest (VOIs) were defined, […] Regional time activity curves (TACs) were then generated for both baseline and blocking PET scans using those VOIs.
(§6) Next, kinetic modeling was performed based on the TACs and the metabolite-corrected arterial plasma input functions. For brain uptake, the primary outcome measure was the regional brain distribution volume (VT) of [^18F]FNDP, defined as concentration of the radiotracer in regional tissue relative to that in blood at equilibrium. We evaluated which compartmental models (e.g., two-tissue-three-compartment (2TCM) or one-tissue-two-compartment (1TCM)) best described the [^18F]FNDP PET data, using statistical model selection criteria, such as the Akaike information criterion. For comparison, the Logan graphical method (t* = 30 min) was also used to compute regional VT, as well as generating voxel-wise parametric images of VT [31].

[2] = system: soluble epoxide hydrolase (sEH); test: as above; assay type: in vivo, baboon (Papio anubis)
Procedure: as §1, §2, §3, §4, §5, §6

sEH = system: sEH; parameters: method as in PMID 27417650; conditions: self-blockade experiments; cited from earlier work
[3] = Amygdala, baseline, mean ± SD of 3 baboons
[4] = Caudate, baseline, mean ± SD of 3 baboons
[5] = Cerebellum, baseline, mean ± SD of 3 baboons
[6] = Corpus callosum, baseline, mean ± SD of 3 baboons
[7] = Frontal gyrus, baseline, mean ± SD of 3 baboons
[8] = Globus pallidus, baseline, mean ± SD of 3 baboons
[9] = Hippocampus, baseline, mean ± SD of 3 baboons
[10] = Hypothalamus, baseline, mean ± SD of 3 baboons
[11] = Insula, baseline, mean ± SD of 3 baboons
[12] = Occipital cortex, baseline, mean ± SD of 3 baboons
[13] = Putamen, baseline, mean ± SD of 3 baboons
[14] = Temporal gyrus, baseline, mean ± SD of 3 baboons
[15] = Thalamus, baseline, mean ± SD of 3 baboons
[16] = White matter, baseline, mean ± SD of 3 baboons

O=C(NCCC(c1ccccc1)c1ccccc1)c1ccc([18F])nc1 [[^18F]FNDP, N-(3,3-diphenylpropyl)-6-^18F-fluoronicotinamide] showed a Kp ([1]; brain: amygdala, Amygdala, read-out: 1TCM VT) of 10.5 ± 0.81, a Kp ([1]; brain: amygdala, Amygdala, read-out: 2TCM VT) of 12.5 ± 2.47 and a Kp ([1]; brain: amygdala, Amygdala, read-out: Logan VT) of 12 ± 1.63. It also gave a Kp ([1]; brain: caudate, Caudate, read-out: 1TCM VT) of 12.9 ± 1.44, a Kp ([1]; brain: caudate, Caudate, read-out: 2TCM VT) of 13.9 ± 2.28 and a Kp ([1]; brain: caudate, Caudate, read-out: Logan VT) of 13.3 ± 1.94. The Kp ([1]; brain: cerebellum, Cerebellum, read-out: Logan VT) was 7.63 ± 0.58, the Kp ([1]; brain: hippocampus, Hippocampus, read-out: 1TCM VT) was 10.3 ± 1.55 and the Kp ([1]; brain: hippocampus, Hippocampus, read-out: 2TCM VT) was 11.5 ± 2.61. It also gave a Kp ([1]; brain: hippocampus, Hippocampus, read-out: Logan VT) of 11 ± 1.96, a Kp ([1]; brain: hypothalamus, Hypothalamus, read-out: 1TCM VT) of 7.77 ± 0.35 and a Kp ([1]; brain: hypothalamus, Hypothalamus, read-out: 2TCM VT) of 8.32 ± 0.57. For the same compound, the Kp ([1]; brain: hypothalamus, Hypothalamus, read-out: Logan VT) was 8.08 ± 0.44, the Kp ([1]; brain: insula, Insula, read-out: 1TCM VT) was 12.1 ± 1.08 and the Kp ([1]; brain: insula, Insula, read-out: 2TCM VT) was 13.8 ± 1.42. For the same compound, the Kp ([1]; brain: insula, Insula, read-out: Logan VT) was 12.8 ± 1.32, the Kp ([1]; brain: putamen, Putamen, read-out: 1TCM VT) was 12.9 ± 1.54 and the Kp ([1]; brain: putamen, Putamen, read-out: 2TCM VT) was 13.8 ± 2.27. For the same compound, the Kp ([1]; brain: putamen, Putamen, read-out: Logan VT) was 13.3 ± 1.81, the Kp ([1]; brain: temporal gyrus, Temporal gyrus, read-out: 1TCM VT) was 9.05 ± 0.41 and the Kp ([1]; brain: temporal gyrus, Temporal gyrus, read-out: 2TCM VT) was 9.77 ± 1.02. It also gave a Kp ([1]; brain: thalamus, Thalamus, read-out: 1TCM VT) of 7.42 ± 0.36, a Kp ([1]; brain: thalamus, Thalamus, read-out: 2TCM VT) of 7.9 ± 0.74 and a Kp ([1]; brain: thalamus, Thalamus, read-out: Logan VT) of 7.87 ± 0.55. The “1TCM K1” value [2, 3] was 0.14 ± 0.03 mL/cm^3/min, the “2TCM K1” value [2, 3] was 0.14 ± 0.03 mL/cm^3/min and the “1TCM K1” value [2, 4] was 0.21 ± 0.05 mL/cm^3/min. For the same compound, the “2TCM K1” value [2, 4] was 0.21 ± 0.05 mL/cm^3/min, the “1TCM K1” value [2, 5] was 0.18 ± 0.03 mL/cm^3/min and the “2TCM K1” value [2, 5] was 0.19 ± 0.03 mL/cm^3/min. For the same compound, the “1TCM K1” value [2, 6] was 0.15 ± 0.03 mL/cm^3/min, the “2TCM K1” value [2, 6] was 0.17 ± 0.03 mL/cm^3/min and the “1TCM K1” value [2, 7] was 0.16 ± 0.04 mL/cm^3/min. The “2TCM K1” value [2, 7] was 0.18 ± 0.04 mL/cm^3/min, the “1TCM K1” value [2, 8] was 0.17 ± 0.03 mL/cm^3/min and the “2TCM K1” value [2, 8] was 0.19 ± 0.03 mL/cm^3/min. The “1TCM K1” value [2, 9] was 0.14 ± 0.03 mL/cm^3/min, the “2TCM K1” value [2, 9] was 0.15 ± 0.04 mL/cm^3/min and the “1TCM K1” value [2, 10] was 0.14 ± 0.03 mL/cm^3/min. The “2TCM K1” value [2, 10] was 0.15 ± 0.03 mL/cm^3/min, the “1TCM K1” value [2, 11] was 0.20 ± 0.05 mL/cm^3/min and the “2TCM K1” value [2, 11] was 0.22 ± 0.05 mL/cm^3/min. The “1TCM K1” value [2, 12] was 0.17 ± 0.06 mL/cm^3/min, the “2TCM K1” value [2, 12] was 0.18 ± 0.06 mL/cm^3/min and the “1TCM K1” value [2, 13] was 0.22 ± 0.05 mL/cm^3/min. For the same compound, the “2TCM K1” value [2, 13] was 0.23 ± 0.05 mL/cm^3/min, the “1TCM K1” value [2, 14] was 0.16 ± 0.03 mL/cm^3/min and the “2TCM K1” value [2, 14] was 0.17 ± 0.03 mL/cm^3/min. The “1TCM K1” value [2, 15] was 0.16 ± 0.03 mL/cm^3/min, the “2TCM K1” value [2, 15] was 0.17 ± 0.03 mL/cm^3/min and the “1TCM K1” value [2, 16] was 0.17 ± 0.04 mL/cm^3/min. The “2TCM K1” value [2, 16] was 0.18 ± 0.04 mL/cm^3/min, the “time of peak of regional brain TACs post-injection” value ([2]; all regions at baseline) was under 15 min and the “K1 (2TCM)” value ([2]; baseline scan, Baboon3) was 0.151 ± 0.021 mL/cm^3/min. The Kp ([2]; male, baboon (Papio anubis), brain (cerebellum), intravenous, Cerebellum, baseline, mean ± SD of 3 baboons, read-out: 1TCM VT) was 7.33 ± 0.45, the Kp ([2]; male, baboon (Papio anubis), brain (cerebellum), intravenous, Cerebellum, baseline, mean ± SD of 3 baboons, read-out: 2TCM VT) was 7.66 ± 0.72 and the Kp ([2]; male, baboon (Papio anubis), brain (globus pallidus), intravenous, Globus pallidus, baseline, mean ± SD of 3 baboons, read-out: 1TCM VT) was 9.07 ± 0.66. For the same compound, the Kp ([2]; male, baboon (Papio anubis), brain (globus pallidus), intravenous, Globus pallidus, baseline, mean ± SD of 3 baboons, read-out: 2TCM VT) was 9.74 ± 1.02, the Kp ([2]; male, baboon (Papio anubis), brain (globus pallidus), intravenous, Globus pallidus, baseline, mean ± SD of 3 baboons, read-out: Logan VT) was 9.44 ± 0.92 and the Kp ([2]; male, baboon (Papio anubis), brain (occipital cortex), intravenous, Occipital cortex, baseline, mean ± SD of 3 baboons, read-out: 1TCM VT) was 7.39 ± 1.56. For the same compound, the Kp ([2]; male, baboon (Papio anubis), brain (occipital cortex), intravenous, Occipital cortex, baseline, mean ± SD of 3 baboons, read-out: 2TCM VT) was 7.82 ± 1.82, the Kp ([2]; male, baboon (Papio anubis), brain (occipital cortex), intravenous, Occipital cortex, baseline, mean ± SD of 3 baboons, read-out: Logan VT) was 7.67 ± 1.63 and the total distribution volume (VT, Logan) ([2]; male, baboon (Papio anubis), brain (range over regions), intravenous, baseline, 3 baboons) was 7.63 to 13.3. For the same compound, the Kp ([2]; male, baboon (Papio anubis), brain (white matter), intravenous, White matter, baseline, mean ± SD of 3 baboons, read-out: 1TCM VT) was 8.43 ± 0.89, the Kp ([2]; male, baboon (Papio anubis), brain (white matter), intravenous, White matter, baseline, mean ± SD of 3 baboons, read-out: 2TCM VT) was 9.29 ± 1.08 and the Kp ([2]; male, baboon (Papio anubis), brain (white matter), intravenous, White matter, baseline, mean ± SD of 3 baboons, read-out: Logan VT) was 9 ± 1.03. It also gave a Kp ([2]; male, baboon (Papio anubis), brain, corpus callosum, intravenous, Corpus callosum, baseline, mean ± SD of 3 baboons, read-out: 1TCM VT) of 8.32 ± 0.91, a Kp ([2]; male, baboon (Papio anubis), brain, corpus callosum, intravenous, Corpus callosum, baseline, mean ± SD of 3 baboons, read-out: 2TCM VT) of 9.28 ± 0.9 and a Kp ([2]; male, baboon (Papio anubis), brain, corpus callosum, intravenous, Corpus callosum, baseline, mean ± SD of 3 baboons, read-out: Logan VT) of 9.06 ± 0.99. It also gave a Kp ([2]; male, baboon (Papio anubis), brain, frontal gyrus, intravenous, Frontal gyrus, baseline, mean ± SD of 3 baboons, read-out: 1TCM VT) of 9.58 ± 0.6, a Kp ([2]; male, baboon (Papio anubis), brain, frontal gyrus, intravenous, Frontal gyrus, baseline, mean ± SD of 3 baboons, read-out: 2TCM VT) of 10.5 ± 1.01 and a Kp ([2]; male, baboon (Papio anubis), brain, frontal gyrus, intravenous, Frontal gyrus, baseline, mean ± SD of 3 baboons, read-out: Logan VT) of 10.3 ± 0.91. For the same compound, the Kp ([2]; male, baboon (Papio anubis), brain, intravenous, baboon brain, baseline, read-out: baseline VT) was 10.9 ± 2.4, the Kp ([2]; male, baboon (Papio anubis), brain, temporal gyrus, intravenous, Temporal gyrus, baseline, mean ± SD of 3 baboons, read-out: Logan VT) was 9.52 ± 0.57 and the “binding specificity for sEH” value (sEH) was ~ 95%.
